Laboratory results taken from US20250195521A1 (Revolution Medicines, Inc., priority 2020, published 2025).
pEC50, pIC50: −log10 of the molar value.

Columns and labels:
[1] = molecular target: K-Ras G12C(GMP-PNP) binding to BRAF RBD (Homo sapiens (Human), UniProt P01116+P62937, G12C); assay: Disruption of BRAF RBD interaction with K-Ras (FRET / MOA assay), K-Ras G12C; format: biochemical; conditions: read-out: KRAS G12C FRET IC50
Description: Note—The following protocol describes a procedure for monitoring disruption of K-Ras G12C(GMP-PNP) binding to BRAF^RBD by a compound of the invention. This protocol may also be executed substituting other Ras proteins or nucleotides.
The purpose of this biochemical assay was to measure the ability of test compounds to facilitate ternary complex formation between a nucleotide-loaded K-Ras isoform and Cyclophilin A; the resulting ternary complex disrupts binding to a BRAF^RBD construct, inhibiting K-Ras signaling through a RAF effector. Data is reported as IC50 values.
Compound was present in plate wells as a 10-point 3-fold dilution series starting at a final concentration of 30 μM. After incubation at 25° C. for 3 hours, a mixture of Anti-His Eu—W1024 and anti-GST allophycocyanin was then added to assay sample wells at final concentrations of 10 nM and 50 nM, respectively, and the reaction incubated for an additional 1.5 hours. […] Compounds that facilitate disruption of a K-Ras: RAF complex were identified as those eliciting a decrease in the TR-FRET ratio relative to DMSO control wells.

[2] = system: NCI-H358 (K-Ras G12C); assay: CellTiter-Glo cell viability assay, NCI-H358; format: cell-based, human; conditions: Homo sapiens, NCI-H358, 120 h, 5-day treatment; read-out: H358 Cell Viability assay data (K-Ras G12C, IC50)
Procedure, shortened: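 Viability is measured as ATP-dependent luminescence (CellTiter-Glo) five days into compound treatment. Responses are normalized to vehicle (DMSO) wells and fitted by four-parameter logistic regression.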

[3] = molecular target: KRAS G13D (Homo sapiens (Human), UniProt P01116+P62937, G13D); assay: Ras-Raf disruption/FRET/MOA assay (BRAF RBD, Cyclophilin A); format: biochemical; conditions: read-out: KRAS G13D FRET data IC50
Procedure, shortened: (§1)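 His6-K-Ras-GMPPNP (12.5 nM), GST-BRAF RBD (50 nM) and tagless Cyclophilin A (25 μM) were combined in 25 mM HEPES pH 7.3 with 100 mM NaCl, 5 mM MgCl2, 0.1% BSA and 0.002% Tween20, with compound as a 10-point 3-fold series from 30 μM final, then incubated 3 h at 25° C.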

[4] = molecular target: KRAS G12D (Homo sapiens (Human), UniProt P01116+P62937, G12D); assay: as above; format: biochemical; conditions: read-out: KRAS G12D FRET IC50
Procedure, shortened: as §1

[5] = molecular target: NRAS G12C (Homo sapiens (Human), UniProt P01111+P62937, G12C); assay: as above; format: biochemical; conditions: read-out: NRAS G12C FRET data IC50
Procedure, shortened: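 Measured: compound-facilitated Cyclophilin A:Ras complex blocking RAF RBD binding. Conditions: 12.5 nM Ras-GMPPNP, 50 nM BRAF RBD, 25 μM CypA, 3 h plus 1.5 h detection. Output: IC50 from TR-FRET ratio.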

[6] = molecular target: KRAS G12S (Homo sapiens (Human), UniProt P01116+P62937, G12S); assay: as above; format: biochemical; conditions: read-out: KRAS G12S FRET IC50
Procedure, shortened: as §1

[7] = molecular target: KRAS WT (Homo sapiens (Human), UniProt P01116+P62937); assay: as above; format: biochemical; conditions: read-out: KRAS WT FRET data IC50
Procedure, shortened: as §1

[8] = molecular target: KRAS G12V (Homo sapiens (Human), UniProt P01116+P62937, G12V); assay: as above; format: biochemical; conditions: read-out: KRAS G12V FRET IC50
Procedure, shortened: as §1

[9] = molecular target: KRAS G12C (Homo sapiens (Human), UniProt P01116+P62937, G12C); assay: as above; format: biochemical; conditions: read-out: KRAS G12C FRET IC50
Procedure, shortened: as §1

[10] = molecular target: KRAS G13C (Homo sapiens (Human), UniProt P01116+P62937, G13C); assay: as above; format: biochemical; conditions: read-out: KRAS G13C FRET IC50
Procedure, shortened: as §1

[11] = system: NCI-H358 cells (K-Ras G12C); assay: CellTiter-Glo cell viability, NCI-H358; format: cell-based, human; conditions: Homo sapiens, NCI-H358, 120 h, K-Ras G12C, 5-day treatment; read-out: H358 Cell Viability IC50
Procedure, shortened: (§2)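 Viability is read as luminescence after five days of compound exposure, with plates first equilibrated to room temperature for roughly 30 minutes. Each signal is expressed as a percentage of the mean DMSO control, and curves are fitted by four-parameter logistic regression.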

[12] = system: K-Ras G12C (NCI-H358 cells); assay: Potency assay: pERK in NCI-H358 cells; format: cell-based, human; conditions: Homo sapiens; NCI-H358 cells, 4 hours; read-out: pERK EC50 (H358 KRAS G12C)
Procedure, shortened: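 Cells plated the day before were exposed for 4 h at 37° C, 5% CO2 to a 10-point, 3-fold DMSO dilution series (10 mM top stock), in duplicate. Phospho-ERK was read by AlphaLISA SureFire Ultra or by In-Cell Western with DRAQ5 DNA stain, and IC50 came from a 4-parameter sigmoidal fit.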

[13] = system: Capan-1 cells (K-Ras G12V); assay: CellTiter-Glo cell viability, Capan-1; format: cell-based, human; conditions: Homo sapiens, CAPAN-1, 120 h, K-Ras G12V, 5-day treatment; read-out: Capan-1 Cell Viability IC50
Procedure, shortened: as §2

Chain of KRAS G12D (P01116 other isoform, or with tags, fused parts or gaps G12D): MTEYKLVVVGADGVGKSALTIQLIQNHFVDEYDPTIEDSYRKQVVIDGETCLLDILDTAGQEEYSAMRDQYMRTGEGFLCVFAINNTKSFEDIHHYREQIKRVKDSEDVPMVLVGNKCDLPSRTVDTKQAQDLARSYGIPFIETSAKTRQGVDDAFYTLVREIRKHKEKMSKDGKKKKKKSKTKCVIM
Chain of KRAS G12D (P62937 whole entry): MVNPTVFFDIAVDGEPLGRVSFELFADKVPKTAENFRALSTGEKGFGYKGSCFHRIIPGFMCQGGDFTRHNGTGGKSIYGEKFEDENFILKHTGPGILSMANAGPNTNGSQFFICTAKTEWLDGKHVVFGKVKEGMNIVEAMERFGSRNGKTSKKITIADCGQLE
Chain of KRAS G13C (P01116 other isoform, or with tags, fused parts or gaps G13C): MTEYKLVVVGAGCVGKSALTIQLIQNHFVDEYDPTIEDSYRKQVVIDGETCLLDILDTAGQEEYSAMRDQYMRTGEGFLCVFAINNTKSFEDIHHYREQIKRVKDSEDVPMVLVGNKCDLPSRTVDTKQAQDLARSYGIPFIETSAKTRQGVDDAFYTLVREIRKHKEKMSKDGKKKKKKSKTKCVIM
Chain of KRAS G13C (P62937 whole entry): as the sequence (P62937 whole entry) above
Chain of KRAS G12C (P01116-2 other isoform, or with tags, fused parts or gaps G12C): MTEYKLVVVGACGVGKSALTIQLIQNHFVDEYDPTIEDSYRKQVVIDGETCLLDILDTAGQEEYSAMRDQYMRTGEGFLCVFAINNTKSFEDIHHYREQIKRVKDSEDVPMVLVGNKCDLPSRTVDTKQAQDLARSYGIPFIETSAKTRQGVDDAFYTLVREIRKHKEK
Chain of KRAS G12C (P62937 whole entry): as the sequence (P62937 whole entry) above
Chain of NRAS G12C (P01111 whole entry G12C): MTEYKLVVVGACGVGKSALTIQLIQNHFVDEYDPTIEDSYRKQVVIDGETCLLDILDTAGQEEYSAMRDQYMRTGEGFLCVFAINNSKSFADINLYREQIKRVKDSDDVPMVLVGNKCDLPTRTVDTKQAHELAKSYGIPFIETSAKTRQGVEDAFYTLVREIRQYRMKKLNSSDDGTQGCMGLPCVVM
Chain of NRAS G12C (P62937 whole entry): as the sequence (P62937 whole entry) above
Chain of KRAS G13D (P01116 other isoform, or with tags, fused parts or gaps G13D): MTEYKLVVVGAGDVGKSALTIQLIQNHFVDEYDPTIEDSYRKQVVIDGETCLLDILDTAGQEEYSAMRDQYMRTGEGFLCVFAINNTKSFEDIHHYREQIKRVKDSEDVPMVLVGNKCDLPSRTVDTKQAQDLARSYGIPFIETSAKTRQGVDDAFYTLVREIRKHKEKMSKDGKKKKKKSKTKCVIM
Chain of KRAS G13D (P62937 whole entry): as the sequence (P62937 whole entry) above
Chain of KRAS WT (P01116 other isoform, or with tags, fused parts or gaps): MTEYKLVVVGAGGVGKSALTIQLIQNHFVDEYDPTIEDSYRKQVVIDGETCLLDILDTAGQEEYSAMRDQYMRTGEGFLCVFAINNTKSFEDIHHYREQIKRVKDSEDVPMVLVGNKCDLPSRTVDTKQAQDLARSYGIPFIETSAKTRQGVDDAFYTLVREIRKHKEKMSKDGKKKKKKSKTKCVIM
Chain of KRAS WT (P62937 whole entry): as the sequence (P62937 whole entry) above
Chain of KRAS G12S (P01116 other isoform, or with tags, fused parts or gaps G12S): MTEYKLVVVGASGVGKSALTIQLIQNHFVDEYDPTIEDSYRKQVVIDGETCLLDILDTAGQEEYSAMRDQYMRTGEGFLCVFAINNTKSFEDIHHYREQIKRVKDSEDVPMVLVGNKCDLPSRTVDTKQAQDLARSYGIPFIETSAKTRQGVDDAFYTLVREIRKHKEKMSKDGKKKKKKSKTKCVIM
Chain of KRAS G12S (P62937 whole entry): as the sequence (P62937 whole entry) above
Chain of KRAS G12V (P01116 other isoform, or with tags, fused parts or gaps G12V): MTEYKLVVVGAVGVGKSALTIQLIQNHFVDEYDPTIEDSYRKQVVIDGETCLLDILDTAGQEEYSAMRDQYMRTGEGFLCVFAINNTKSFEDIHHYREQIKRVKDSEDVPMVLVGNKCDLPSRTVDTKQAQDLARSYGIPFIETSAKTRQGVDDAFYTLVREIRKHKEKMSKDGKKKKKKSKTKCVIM
Chain of KRAS G12V (P62937 whole entry): as the sequence (P62937 whole entry) above
Chain of K-Ras G12C(GMP-PNP) binding to BRAF RBD (P01116 other isoform, or with tags, fused parts or gaps G12C): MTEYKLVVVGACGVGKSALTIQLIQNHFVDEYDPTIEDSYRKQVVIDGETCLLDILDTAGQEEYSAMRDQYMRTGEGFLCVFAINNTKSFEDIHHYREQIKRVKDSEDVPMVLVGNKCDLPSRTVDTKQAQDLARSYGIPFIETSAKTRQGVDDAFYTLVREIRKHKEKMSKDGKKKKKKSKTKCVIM
Chain of K-Ras G12C(GMP-PNP) binding to BRAF RBD (P62937 whole entry): as the sequence (P62937 whole entry) above

Row | SMILES | pIC50 [1] | pIC50 [2] | pIC50 [3] | pIC50 [4] | pIC50 [5] | pIC50 [6] | pIC50 [7] | pIC50 [8] | pIC50 [9] | pIC50 [10] | pIC50 [11] | pEC50 [12] | pIC50 [13]
1 | CCn1c(-c2cnccc2COC)c2c3cc(ccc31)-c1cc(O)cc(c1)C[C@H](NC(=O)[C@H](C(C)C)N(C)C(=O)[C@H]1CCN(C[C@@H](C)O)C1)C(=O)N1CCC[C@H](N1)C(=O)OCC(C)(C)C2 [Compound A31] |  | 7.00 to 8.00 | 6.00 to 7.00 | 6.00 to 7.00 | 6.00 to 7.00 | 6.00 to 7.00 | 6.00 to 7.00 | 5.00 to 6.00 | 6.00 to 7.00 | 7.00 to 8.00 | < 5.00 | > 5.30 | 
2 | CCn1c(-c2cnccc2COC)c2c3cc(ccc31)-c1cc(O)cc(c1)C[C@H](NC(=O)[C@H](C(C)C)N(C)C(=O)[C@H]1CCN(C3CCOCC3)C1)C(=O)N1CCC[C@H](N1)C(=O)OCC(C)(C)C2 [Compound A45] |  | 7.00 to 8.00 | 7.00 to 8.00 | 6.00 to 7.00 | 5.00 to 6.00 | 6.00 to 7.00 | 6.00 to 7.00 | < 5.00 | 6.00 to 7.00 | 6.00 to 7.00 | 5.00 to 6.00 | > 5.30 | 
3 | CCn1c(-c2cnccc2COC)c2c3cc(ccc31)-c1cc(O)cc(c1)C[C@H](NC(=O)[C@H](C(C)C)N(C)C(=O)[C@H]1CCN(C[C@H](C)O)C1)C(=O)N1CCC[C@H](N1)C(=O)OCC(C)(C)C2 [Compound A47] |  | 7.00 to 8.00 | 6.00 to 7.00 | 5.00 to 6.00 | 6.00 to 7.00 | 6.00 to 7.00 | 6.00 to 7.00 | < 5.00 | 6.00 to 7.00 | 6.00 to 7.00 | < 5.00 | > 5.30 | 
4 | CCn1c(-c2cnccc2COC)c2c3cc(ccc31)-c1cc(O)cc(c1)C[C@H](NC(=O)[C@@H](NC(C)=O)C(C)C)C(=O)N1CCC[C@H](N1)C(=O)OCC(C)(C)C2 [Compound A58] |  | 7.00 to 8.00 | 5.00 to 6.00 | < 5.00 | 5.00 to 6.00 | 5.00 to 6.00 | 5.00 to 6.00 | 5.00 to 6.00 | 5.00 to 6.00 | 5.00 to 6.00 | 5.00 to 6.00 | > 5.30 | 

Now from value to compound, other results behind:

Row | pIC50 [1] | pIC50 [2] | pIC50 [3] | pIC50 [4] | pIC50 [5] | pIC50 [6] | pIC50 [7] | pIC50 [8] | pIC50 [9] | pIC50 [10] | pIC50 [11] | pEC50 [12] | SMILES | pIC50 [13]
5 | 6.00 to 7.00 | 7.00 to 8.00 |  |  |  |  |  |  |  |  |  |  | CCn1c(-c2cccnc2[C@H](C)OC)c2c3cc(ccc31)-c1csc(n1)C[C@H](NC(=O)[C@H](C(C)C)N(C)C(=O)N1CC([C@@H](C)CO)C1)C(=O)N1CCC[C@H](N1)C(=O)OCC(C)(C)C2 (single isomer, unassigned) [Compound A487] | 
6 |  | 7.00 to 8.00 | 6.00 to 7.00 | 5.00 to 6.00 | 6.00 to 7.00 | 6.00 to 7.00 | 6.00 to 7.00 | 6.00 to 7.00 | 6.00 to 7.00 | 5.00 to 6.00 | 6.00 to 7.00 | > 5.30 | CCn1c(-c2cnccc2COC)c2c3cc(ccc31)-c1cc(O)cc(c1)C[C@H](NC(=O)[C@H](C(C)C)N(C)C(=O)c1ncc[nH]1)C(=O)N1CCC[C@H](N1)C(=O)OCC(C)(C)C2 [Compound A64] | 
7 |  | 6.00 to 7.00 | 5.00 to 6.00 | 5.00 to 6.00 | 5.00 to 6.00 | 5.00 to 6.00 | 5.00 to 6.00 | 5.00 to 6.00 | 5.00 to 6.00 | 6.00 to 7.00 | 5.00 to 6.00 |  | CCn1c(-c2cnccc2COC)c2c3cc(ccc31)-c1cc(O)cc(c1)C[C@H](NC(=O)[C@H](C(C)C)N(C)C(=O)[C@@H](C)O)C(=O)N1CCC[C@H](N1)C(=O)OCC(C)(C)C2 [Compound A92] | < 5.00
8 | 5.00 to 6.00 |  |  |  |  |  |  |  |  |  |  |  | CCn1c(-c2cccnc2[C@H](C)OC)c2c3cc(ccc31)-c1cc(O)cc(c1)C[C@H](NC(=O)[C@H](C(C)C)N(C)C(=O)[C@H]1CCN(C)C1)C(=O)N1CCC[C@H](N1)C(=O)OCC(C)(C)C2 [Compound A100] | 
